Source: US5696113A, “Antipsychotic agents, compositions and method of use” (Hoechst Marion Roussel, Inc., priority 1996, dated 1997)
Where a name gives a salt, the structure may show the parent alone. Read-outs that look alike come from different tables or passages of the source.

What was measured:
apomorphine climbing = assay: Climbing Mouse Assay (apomorphine-induced climbing); type: in vivo, mice (CK-1 male); settings: ip, read-out: CLIMBING MOUSE ASSAY (ED50 mg/kg, ip)
Experimental: Antipsychotic activity is determined in the climbing mice assay by a method similar to those described by P. Protais, et al, Psychopharmacol.
Subject […] male mice (23-27 grams) are group-housed under standard laboratory conditions. The mice are individually placed in wire mesh stick cages (4"×10") and are allowed one hour for adaption and exploration of the new environment.
For evaluation of climbing, 3 readings are taken at 10, 20, and 30 minutes after apomorphine administration according to the following scale:
Mice consistently climbing before the injection of apomorphine are discarded.
With full-developed apomorphine climbing, the animals are hanging on to the cage walls, rather motionless, over long periods of time. By contrast, climbs due to mere motor stimulation usually only last a few seconds.
The climbing scores are individually totaled (maximal score: 6 per mouse over 3 readings) and the total score of the control group (vehicle intraperitoneally, apomorphine subcutaneously) is set to 100%.

[1] = tested on: postsynaptic dopamine receptors; assay: Apomorphine stereotypy inhibition in rats (APO-S); type: in vivo, male Wistar rats; settings: ip, apomorphine 1.5 mg/kg s.c.
Experimental: APOMORPHINE STEREOTYPY INHIBITION IN RATS
For a primary screen, a group size of six is used. Drug is administered one hour prior to scoring and the animals are placed in individual clear plastic cages (24×14×13 cm). The control group receives vehicle. Apomorphine is prepared at a concentration of 15 mg/10 ml in a […] ascorbic acid stock solution prepared with 30 mg of ascorbic acid in 100 ml of 1% saline to increase the stability of the apomorphine while in solution. […] Stereotypic behavior is noted 10 minutes later. […] Stereotypic behavior is defined as sniffing, licking or chewing behavior which occurs in a repetitive manner and is continuous for a 10-second period in the presence of white noise. The animal is considered protected if this behavior is interrupted. The percent effectiveness of a drug is determined by the number of animals protected in each group.
A dose-response is determined in the same manner as a primary screen except that a group size of 10 is used and the animals are dosed in a randomized manner. One group receives vehicle. ED50 values for inhibition of stereotypy are calculated by means of Litchfield and Wilcoxon Analysis.

[2] = tested on: dopamine neurons, ventral tegmental area (A10); assay: Chronic single-unit dopamine neuron sampling, A10 region; type: in vivo, male Wistar rats; settings: ip, once a day for 21 days, vs vehicle; dose 20 mg/kg for the hydrobromide compound
Experimental: Dopamine Neuron Sampling.
Compounds were prepared as percent base.

[3] = tested on: dopamine neurons, substantia nigra (A9); assay: Chronic single-unit dopamine neuron sampling, A9 region; settings: for % Change in A9 region (dopamine neuron sampling): ip, once a day for 21 days, vs vehicle, dose 20 mg/kg for the hydrobromide compound
Experimental: Dopamine Neuron Sampling. Male Wistar rats (280-360 grams) were used in this procedure. They were housed for at least 48 hours in a climate-controlled vivarium with food and water continuously available. Each rat was initially anesthetized with chloral hydrate (400 mg/kg ip) and maintained with additional injections as needed throughout the experiment. The animal was mounted in a stereotaxic apparatus (Kopf, model 900). The cranium was exposed, cleaned of connective tissue and dried. The skull overlying both the substantia nigra [A9:anterior (A) 3000-3400 microns, lateral (L) 1800-2400 microns from lambda)] and the ventral tegmental area (A10: A3000-3400 microns, L 400-1000 microns from lambda)^47 was removed. Using the dura as a point of reference, a micropipette driven by a hydraulic microdrive was lowered through the opening in the skull at vertical 6000-8500 microns. Spontaneously firing dopamine neurons within both the substantia nigra and the ventral tegmental areas were counted by lowering the electrode into twelve separate tracks (each track separated from the other by 200 microns) in each region. The sequence of the tracks was kept constant, forming a block of tissue which could be repoducibly located from animal to animal.
Extracellular neuronal signals were sampled using a single barrel micropipette approximately one micron at its tip, and filled with 2M NaCl saturated with 1% pontamine sky blue dye. The in vitro impedance of this piper (measured with a Winston Electronics Co., BL-1000 Micro Electrode Tester) was between 5 and 10 megaohms. […] Only cells whose electrophysiological characteristics matched those previously established for midbrain dopamine neurons were counted.
At the end of each experiment, the location of the last recorded track tip was marked by passing 25 microampere cathodal current through the recording micropipette barrel for 15 minutes in order to deposit a spot of dye. The rat was sacrificed; the brain was then removed, dissected and frozen on a bed of dry ice. Frozen serial sections (20 microns in width) were cut, mounted, and stained with cresyl violet and examined using a light microscope.
Animals pretreated with vehicle prior to neuronal sampling served as controls. Compounds were prepared as percent base. Each compound was suspended in distilled water and one drop of Tween 80, and kept constantly agitated during dosing. All compounds were delivered at a dodge volume of 1 mg/kg by the intraperitoneal route. For animals used in the chronic single-unit, dopamine neuron sampling assay, the compounds were administered once a day for 21 days, and dopamine neuron sampling was begun two hours after the last dose on the 21st day. […]

[4] = target: T1, D2-Dopaminergic Site (striatal membranes) (Rattus norvegicus, UniProt P61169); assay: 3H-Spiroperidol binding to striatal membranes (D2-dopaminergic site); parameters: species or system rats
T1 construct: from tissue; host or cells: rat striatum (membranes)
Experimental: (§1) D2 /5T-HT2 BINDING ASSAYS
^3 H-Spiroperidol Binding to Striatal Membranes (D2 -Dopaminergic Site) in Rats
Striatal membranes were incubated with ^3 H-spiroperidol (0.4 nM) and various concentrations of test drug at 37° C. for 10 minutes in 1 ml of 0.05 M Tris-HCl buffer, pH 7.7 containing 120 mM NaCl, 5 mM KCl, 2 mM CaCl2, and 1 mM MgCl2. Nonspecific binding was determined in the presence of 2μM(+)-butaclamol. Bound ligand was separated by rapid filtration through Whatman GF/B filters.

[5] = target: T2, 5HT2 Site (cerebral cortical membranes) (Rattus norvegicus, UniProt P14842); assay: 3H-Spiroperidol binding to cerebral cortical membranes (5HT2 site); parameters: species or system rats; settings: 3H-spiroperidol 1.5 nM, 37° C., 10 min, pH 7.7
T2 construct: from tissue; host or cells: rat cerebral cortex (membranes)
Experimental: as §1
^3 H-Spiroperidol Binding to Cerebral Cortical membranes (5HT2 Site) in Rats
Nonspecific binding was determined in the presence of 5 μM methysergide. The incubation was terminated by rapid filtration through Whatman GF/B filters.

[6] = tested on: dopamine neurons, substantia nigra (A9); settings: repeated administration; background statement; cited from earlier work
[7] = apomorphine 1.5 mg/kg s.c., linear regression

T1 sequence (P61169 whole entry): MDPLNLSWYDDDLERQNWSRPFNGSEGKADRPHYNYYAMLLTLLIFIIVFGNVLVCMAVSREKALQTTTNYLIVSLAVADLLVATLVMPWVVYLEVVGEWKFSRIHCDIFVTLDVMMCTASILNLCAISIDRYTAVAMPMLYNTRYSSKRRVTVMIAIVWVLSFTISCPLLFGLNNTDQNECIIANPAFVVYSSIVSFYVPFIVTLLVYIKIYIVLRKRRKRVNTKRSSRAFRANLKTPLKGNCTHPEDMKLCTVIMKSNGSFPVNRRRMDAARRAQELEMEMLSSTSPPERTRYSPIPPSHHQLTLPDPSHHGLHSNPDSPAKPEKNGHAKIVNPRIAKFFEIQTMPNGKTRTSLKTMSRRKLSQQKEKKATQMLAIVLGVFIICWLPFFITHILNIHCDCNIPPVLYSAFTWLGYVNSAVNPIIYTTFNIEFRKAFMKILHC
T2 sequence (P14842 whole entry): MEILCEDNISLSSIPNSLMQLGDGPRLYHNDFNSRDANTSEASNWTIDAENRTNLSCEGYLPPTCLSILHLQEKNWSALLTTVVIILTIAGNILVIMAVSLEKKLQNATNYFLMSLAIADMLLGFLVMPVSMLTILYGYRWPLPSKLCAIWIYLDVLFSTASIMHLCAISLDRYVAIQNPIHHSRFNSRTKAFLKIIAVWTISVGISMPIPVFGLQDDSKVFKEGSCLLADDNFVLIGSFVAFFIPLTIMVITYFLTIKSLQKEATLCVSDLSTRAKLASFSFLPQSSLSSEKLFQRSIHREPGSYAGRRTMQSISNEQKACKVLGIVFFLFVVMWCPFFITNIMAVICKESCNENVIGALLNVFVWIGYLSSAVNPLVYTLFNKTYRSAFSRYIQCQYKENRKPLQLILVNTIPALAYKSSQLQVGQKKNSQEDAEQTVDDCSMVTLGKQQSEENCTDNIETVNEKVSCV

Row | Compound | ED50 (apomorphine climbing) | ED50 ([1]; Rattus norvegicus, Litchfield and Wilcoxon) | % Change in A10 region (dopamine neuron sampling) [2] | % Change in A9 region (dopamine neuron sampling) [3] | number of DA neurons in the A9 area (EPS propensity) ([3]; result in words) | ED50 (apomorphine climbing; [7]) | IC50 ([4]; 3H-spiroperidol 0.4 nM, 37° C., 10 min, pH 7.7) | D2/5-HT2 ([4]; ratio of D2 IC50 to 5-HT2 IC50) | APOMORPHINE STEREOTYPY INHIBITION (% inhibition) ([1]; at 4.0 mg/kg) | IC50 [5] | APOMORPHINE STEREOTYPY INHIBITION (ED50) ([1]; Litchfield and Wilcoxon) | depolarization inactivation of the DA neurons in the A9 area [6]
1 | CN1CCN(C2=Nc3cc(Cl)ccc3Nc3ccccc32)CC1 [Clozapine] | 8.1 mg/kg | > 40 mg/kg | -79% | +37% | do not cause a decrease in the number of DA neurons in the A9 area | – | – | – | – | – | – | –
2 | COc1ccc2c(N3CCN(CCCC(=O)c4ccc(F)cc4)CC3)noc2c1 [Example 1b, 3-[1-(4'-Fluorobenzoyl)propyl-4-piperazine]-6-methoxy-1,2-benzisoxazole] | – | – | – | – | – | 5.28 mg/kg | – | – | – | – | – | –
3 | O=C(CCCN1CCN(c2noc3cc(O)ccc23)CC1)c1ccc(F)cc1 [Example 3, 3-[1-(4'-Fluorobenzoyl)propyl-4-piperazinyl]-6-hydroxy-1,2-benzisoxazole hydrobromide] | – | – | -44.9% | +1.4% | – | 0.4 mg/kg | 240 nM | 5.3 | 0% | 45 nM | – | –
4 | O=C(CCCN1CCC(O)(c2ccc(Cl)cc2)CC1)c1ccc(F)cc1 [Haloperidol] | – | – | -35% | -30% | – | 0.11 mg/kg | – | – | – | – | 0.6 mg/kg | cause a depolarization inactivation of the DA neurons in the A9 area of the brain
